Calls of active or inactive are those of the source. No cut-off for these calls is given here.
Assays:
Rattus norvegicus [1] = experiment: Ex vivo receptor occupancy of 5HT2A receptor in rat brain at 10 mg/kg, po after 0.5 hrs; assay type: functional
[2] = Metabolic stability in human liver microsomes assessed as compound turnover after 0.25 hrs by LC/MS/MS analysis; set-up: dose or concentration left out as unconfirmed
[3] = molecular target: T1, 5-hydroxytryptamine receptor 2C (Homo sapiens, UniProt P28335); experiment: biochemical
T1 sequence (P28335 whole entry): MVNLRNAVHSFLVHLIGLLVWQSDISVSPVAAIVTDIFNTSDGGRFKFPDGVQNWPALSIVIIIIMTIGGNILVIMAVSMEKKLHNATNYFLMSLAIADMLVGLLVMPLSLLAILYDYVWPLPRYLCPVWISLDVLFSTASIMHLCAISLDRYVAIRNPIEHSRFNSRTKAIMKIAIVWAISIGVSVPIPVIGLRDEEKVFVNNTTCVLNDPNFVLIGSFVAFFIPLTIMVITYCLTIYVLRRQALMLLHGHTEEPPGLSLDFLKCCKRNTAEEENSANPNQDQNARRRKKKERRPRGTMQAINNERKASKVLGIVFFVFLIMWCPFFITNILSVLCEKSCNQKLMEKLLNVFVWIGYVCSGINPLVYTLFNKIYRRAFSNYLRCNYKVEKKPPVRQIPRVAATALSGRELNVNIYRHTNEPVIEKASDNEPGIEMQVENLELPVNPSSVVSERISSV
Description: Displacement of [3H]mesulergine from human 5HT2C receptor expressed CHO cells

Rattus norvegicus [4] = experiment: Ex vivo receptor occupancy of 5HT2A receptor in rat brain at 5 mg/kg, po after 0.5 hrs; assay type: functional
[5] = molecular target: Voltage-gated inwardly rectifying potassium channel KCNH2 (Homo sapiens, UniProt Q12809); experiment: Displacement of [3H]-dofetilide from human ERG receptor expressed HEK cells
[6] = molecular target: 5-hydroxytryptamine receptor 2A (Homo sapiens, UniProt P28223); experiment: biochemical
Description: Displacement of [3H]- ketanserin from human 5HT2A receptor expressed CHO cells

[7] = Plasma concentration in rat at 10 mg/kg, po after 0.5 hrs; assay type: ADME, organism-based; set-up: dose 10 mg/kg, route oral
Rattus norvegicus [8] = experiment: Inhibition of ex vivo receptor occupancy of 5HT2A receptor in rat brain at 10 mg/kg, po after 0.5 hrs; assay type: functional
[9] = Drug level in rat brain at 10 mg/kg, po after 0.5 hrs; assay type: ADME, organism-based; set-up: dose 10 mg/kg, route oral; conditions: read-out: Drug uptake
[10] = molecular target: Cytochrome P450 2C9 (Homo sapiens) (UniProt P11712); experiment: Inhibition of CYP2C9
[11] = Metabolic stability in rhesus monkey liver microsomes assessed as compound remaining […] after 0.25 hrs by LC/MS/MS analysis; assay type: ADME, Macaca mulatta, Microsome; conditions: read-out: Stability
[12] = Metabolic stability in dog liver microsomes assessed as compound remaining […] after 0.25 hrs by LC/MS/MS analysis; assay type: ADME, Canis lupus familiaris, Microsome; conditions: read-out: Stability
[13] = Half life in dog at 0.1 mg/kg, iv and 1 mg/kg, po; assay type: ADME, organism-based, Canis lupus familiaris; conditions: in vivo
[14] = Plasma clearance in Sprague-Dawley rat at 0.1 mg/kg, iv and 1 mg/kg, po; assay type: ADME, organism-based
[15] = Plasma clearance in rhesus monkey at 0.1 mg/kg, iv and 1 mg/kg, po; assay type: ADME, organism-based, Macaca mulatta
[16] = Plasma clearance in dog at 0.1 mg/kg, iv and 1 mg/kg, po; assay type: ADME, organism-based, Canis lupus familiaris
[17] = Metabolic stability in rat liver microsomes assessed as compound remaining […] after 0.25 hrs by LC/MS/MS analysis; assay type: ADME, Microsome; conditions: read-out: Stability
[18] = Half life in Sprague-Dawley rat at 0.1 mg/kg, iv and 1 mg/kg, po; assay type: ADME, organism-based; conditions: in vivo
[19] = Half life in rhesus monkey at 0.1 mg/kg, iv and 1 mg/kg, po; assay type: ADME, organism-based, Macaca mulatta; conditions: in vivo
[20] = Bioavailability in rat; assay type: ADME, organism-based; conditions: in vivo
Canis familiaris [21] = experiment: Cardiotoxicity in dog assessed as increase of heart rate up to 10 mg/kg, iv; assay type: toxicity, organism-based, Canis lupus familiaris; set-up: dose 10 mg/kg, route intravenous; conditions: in vivo
[22] = Induction of cytochrome P450 activity at 10 uM; assay type: ADME
[23] = Bioavailability in dog; assay type: ADME, organism-based, Canis lupus familiaris; conditions: in vivo
Rattus norvegicus [24] = experiment: Decrease of number of awakenings in rat at 3 mg/kg, po after 15 hrs by EMG recordings; assay type: functional, organism-based; set-up: dose 3 mg/kg
[25] = Chemical stability in acetonitrile/water at pH 1 to 10 after 5 days; assay type: physicochemical; conditions: pH 1, 120 h
Canis familiaris [26] = experiment: Cardiotoxicity in dog assessed as increase of QT interval up to 10 mg/kg, iv; assay type: toxicity, organism-based, Canis lupus familiaris; set-up: dose 10 mg/kg, route intravenous; conditions: in vivo
Mus musculus = experiment: Phototoxicity in mouse assessed as formation of erythema at 10 to 2000 mg/kg, po; assay type: organism-based; set-up: dose 10-2000 mg/kg, route oral; conditions: in vivo
[27] = molecular target: Cytochrome P450 2C9 (Homo sapiens) (UniProt P11712); experiment: Inhibition of CYP2C9 at 6 uM
[28] = Inhibition of CYP1A at 4.8 uM; assay type: ADME
Rattus norvegicus [29] = experiment: Ex vivo receptor occupancy of 5HT2A receptor in rat brain at 1 mg/kg, po after 0.5 hrs; assay type: functional
[30] = Volume of distribution at steady state in Sprague-Dawley rat at 0.1 mg/kg, iv and 1 mg/kg, po; assay type: ADME, organism-based; conditions: in vivo, read-out: Vdss
Rattus norvegicus [31] = experiment: Sedative activity in rat assessed effect on time spent on rapid eye movement sleep at 3 mg/kg, po after 15 hrs; assay type: ADME, organism-based; set-up: dose 3 mg/kg, route oral; conditions: in vivo
Rattus norvegicus [32] = experiment: Increase of slow wave sleep in rat at 3 mg/kg, po after 15 hrs by EEG recordings; assay type: functional, organism-based; set-up: dose 3 mg/kg
Rattus norvegicus [33] = experiment: Ex vivo receptor occupancy of 5HT2A receptor in rat brain at <1 mg/kg, po after 2 hrs; assay type: functional
[34] = Inhibition of cytochrome P450 at > 30 uM; assay type: ADME
[35] = Plasma concentration in rat at <1 mg/kg, po after 2 hrs; assay type: ADME, organism-based
Rattus norvegicus [36] = experiment: Sedative activity in rat assessed effect on sleep onset at 3 mg/kg, po after 15 hrs; assay type: ADME, organism-based; set-up: dose 3 mg/kg, route oral; conditions: in vivo
Rattus norvegicus [37] = experiment: Ex vivo receptor occupancy of 5HT2A receptor in rat brain at 3 mg/kg, po after 2 hrs; assay type: functional, organism-based; set-up: dose 3 mg/kg
Rhesus monkey = experiment: Plasma concentration in rhesus monkey; assay type: ADME, organism-based, Macaca mulatta; conditions: in vivo
[38] = Stability after 5 days; assay type: physicochemical; conditions: 120 h
[39] = Bioavailability in rhesus monkey; assay type: ADME, organism-based, Macaca mulatta; conditions: in vivo
[40] = Drug level in rat hepatic portal vein plasma at 5 mg/kg, po administered with imwittor/tween by electrospray mass spectrometry; assay type: ADME, organism-based; set-up: dose 5 mg/kg, route oral
[41] = Drug level in rat cardiac plasma at 5 mg/kg, po administered with imwittor/tween by electrospray mass spectrometry; assay type: ADME, organism-based; set-up: dose 5 mg/kg, route oral
[42] = Drug level in rat brain at 5 mg/kg, po administered with methocel suspension by electrospray mass spectrometry; assay type: ADME, organism-based; set-up: dose 5 mg/kg, route oral
[43] = Drug level in rat brain at 5 mg/kg, po administered with imwittor/tween by electrospray mass spectrometry; assay type: ADME, organism-based; set-up: dose 5 mg/kg, route oral
[44] = Drug level in rat hepatic portal vein plasma at 5 mg/kg, po administered with methocel suspension by electrospray mass spectrometry; assay type: ADME, organism-based; set-up: dose 5 mg/kg, route oral
[45] = Drug level in rat cardiac plasma at 5 mg/kg, po administered with methocel suspension by electrospray mass spectrometry; assay type: ADME, organism-based; set-up: dose 5 mg/kg, route oral

Sequence of Voltage-gated inwardly rectifying potassium channel KCNH2 (Q12809 whole entry): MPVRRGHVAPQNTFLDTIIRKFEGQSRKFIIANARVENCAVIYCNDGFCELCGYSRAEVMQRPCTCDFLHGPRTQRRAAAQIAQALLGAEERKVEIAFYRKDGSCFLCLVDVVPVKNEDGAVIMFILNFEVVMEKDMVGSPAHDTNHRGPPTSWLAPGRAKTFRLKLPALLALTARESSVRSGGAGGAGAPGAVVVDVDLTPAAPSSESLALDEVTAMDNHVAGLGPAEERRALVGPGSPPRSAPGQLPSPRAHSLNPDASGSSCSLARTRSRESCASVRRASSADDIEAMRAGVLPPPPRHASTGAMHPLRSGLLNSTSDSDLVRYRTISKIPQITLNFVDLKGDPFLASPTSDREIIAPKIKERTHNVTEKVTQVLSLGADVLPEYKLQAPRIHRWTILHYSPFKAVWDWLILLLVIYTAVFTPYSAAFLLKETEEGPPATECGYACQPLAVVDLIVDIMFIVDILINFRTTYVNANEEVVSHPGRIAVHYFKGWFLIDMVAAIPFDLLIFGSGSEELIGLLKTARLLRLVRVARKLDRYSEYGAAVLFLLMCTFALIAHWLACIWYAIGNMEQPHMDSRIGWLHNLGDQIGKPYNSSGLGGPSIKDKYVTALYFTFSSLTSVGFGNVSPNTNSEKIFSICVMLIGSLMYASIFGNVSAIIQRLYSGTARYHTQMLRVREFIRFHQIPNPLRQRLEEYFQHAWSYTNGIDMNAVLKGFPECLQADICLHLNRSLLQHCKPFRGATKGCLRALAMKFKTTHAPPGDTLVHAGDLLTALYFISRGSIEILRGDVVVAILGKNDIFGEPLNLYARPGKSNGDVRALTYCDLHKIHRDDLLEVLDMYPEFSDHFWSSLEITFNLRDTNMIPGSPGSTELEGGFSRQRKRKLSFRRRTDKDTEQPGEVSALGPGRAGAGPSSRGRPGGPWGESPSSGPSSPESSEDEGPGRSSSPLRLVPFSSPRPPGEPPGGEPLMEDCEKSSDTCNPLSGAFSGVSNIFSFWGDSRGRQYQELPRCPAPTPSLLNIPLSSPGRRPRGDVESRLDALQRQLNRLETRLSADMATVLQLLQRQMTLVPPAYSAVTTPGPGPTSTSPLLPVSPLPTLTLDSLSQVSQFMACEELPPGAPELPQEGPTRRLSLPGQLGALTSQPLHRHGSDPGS
Sequence of 5-hydroxytryptamine receptor 2A (P28223 whole entry): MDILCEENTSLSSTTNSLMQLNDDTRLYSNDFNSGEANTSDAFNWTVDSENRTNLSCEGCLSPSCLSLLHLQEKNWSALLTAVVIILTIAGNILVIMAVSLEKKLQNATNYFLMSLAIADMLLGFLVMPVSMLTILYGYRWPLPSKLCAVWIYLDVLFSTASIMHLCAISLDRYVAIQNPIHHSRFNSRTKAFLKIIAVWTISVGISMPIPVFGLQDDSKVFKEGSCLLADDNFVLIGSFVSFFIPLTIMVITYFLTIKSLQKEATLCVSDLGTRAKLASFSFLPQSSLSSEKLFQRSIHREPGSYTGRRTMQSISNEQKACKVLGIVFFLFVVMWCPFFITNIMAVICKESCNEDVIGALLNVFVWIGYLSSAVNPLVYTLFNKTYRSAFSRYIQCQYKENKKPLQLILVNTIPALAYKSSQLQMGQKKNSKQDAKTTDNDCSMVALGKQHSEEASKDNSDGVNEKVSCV
Sequence of Cytochrome P450 2C9 (Homo sapiens) (P11712 whole entry, looked up): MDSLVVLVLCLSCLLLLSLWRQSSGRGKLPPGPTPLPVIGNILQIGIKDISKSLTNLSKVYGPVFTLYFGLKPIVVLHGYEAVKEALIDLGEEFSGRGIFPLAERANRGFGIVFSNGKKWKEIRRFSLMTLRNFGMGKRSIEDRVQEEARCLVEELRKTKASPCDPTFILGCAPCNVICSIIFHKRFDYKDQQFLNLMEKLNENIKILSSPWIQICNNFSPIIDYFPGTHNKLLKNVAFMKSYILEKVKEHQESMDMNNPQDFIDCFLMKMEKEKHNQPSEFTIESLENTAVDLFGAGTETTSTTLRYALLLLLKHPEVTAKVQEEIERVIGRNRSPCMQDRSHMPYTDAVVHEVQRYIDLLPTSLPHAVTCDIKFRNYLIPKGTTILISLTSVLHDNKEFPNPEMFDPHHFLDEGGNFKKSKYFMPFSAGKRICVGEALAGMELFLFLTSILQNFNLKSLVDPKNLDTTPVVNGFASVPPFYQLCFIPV

## CC(O)c1ccccc1S(=O)(=O)c1ccc(/C=C/c2ccc(F)cc2)cc1 (racemic)
Rattus norvegicus [1]
  Activity: 85%
[2]
  turnover at 0.25 h: < 10%
[3]
  Ki: 7 nM
Rattus norvegicus [4]
  Activity: 99%
[5]
  Ki: 4000 nM
[6]
  Ki: 0.07 nM

## O=S(=O)(c1ccc(F)cc1)C1(F)CCN(CCc2ccc(F)cc2F)CC1
Rattus norvegicus [1]
  Activity: 98%
[3]
  Ki: 69 nM

## NC(=O)c1ccc(S(=O)(=O)c2ccc(/C=C/c3ccc(F)cc3F)cc2)cc1
[2]
  turnover at 0.25 h: 0%
[7]
  concentration at 0.5 h: 300 nM
[3]
  Ki: 41 nM
Rattus norvegicus [8]
  inhibition in vivo at 10 mg/kg: 53%
[9]
  concentration at 0.5 h: 620 nM
[5]
  Ki: 7920 nM
[6]
  Ki: 0.65 nM

## NC(=O)c1cccc(S(=O)(=O)c2ccc(/C=C/c3ccc(F)cc3F)cc2)c1
Rattus norvegicus [1]
  Activity: 50%
[2]
  turnover at 0.25 h: 3%
[7]
  concentration at 0.5 h: 40 nM
[3]
  Ki: 21 nM
Rattus norvegicus [8]
  inhibition in vivo at 10 mg/kg: 50%
[9]
  concentration at 0.5 h: 40 nM
[5]
  Ki: > 9000 nM
[6]
  Ki: 0.2 nM

## O=S(=O)(c1ccc(/C=C/c2ccc(F)cc2)cc1)c1ccccc1CO
[10]
  IC50: 100 nM

## NC(=O)c1ccccc1S(=O)(=O)c1ccc(/C=C/c2ccc(F)cc2F)cc1
[11]
  remaining at 0.25 h: 23%
Rattus norvegicus [1]
  Activity: > 100%
[12]
  remaining at 0.25 h: < 10%
[13]
  half-life: 134 h
[2]
  turnover at 0.25 h: 15.8%
[14]
  clearance: 3 mL/min/kg
[15]
  clearance: 0.13 mL/min/kg
[7]
  concentration at 0.5 h: 2730 nM
[16]
  clearance: 0.3 mL/min/kg
[3]
  Ki: 127 nM
Rattus norvegicus [8]
  inhibition in vivo at 10 mg/kg: 100%
[9]
  concentration at 0.5 h: 5770 nM
[5]
  Ki: > 9000 nM
[6]
  Ki: 0.65 nM
[17]
  remaining at 0.25 h: 0%
[18]
  half-life: 28 h
[19]
  half-life: 85 h

## O=S(=O)(c1cccc2cccnc12)N1CCC(CCc2ccc(F)cc2F)CC1
[3]
  Ki: 184 nM
[5]
  Ki: > 9000 nM
[6]
  Ki: 2.1 nM

## O=S(=O)(c1ccccc1)c1ccc(CCc2ccc(F)cc2F)cc1
[2]
  turnover at 0.25 h: 84%
[3]
  Ki: 526 nM
[5]
  Ki: > 9000 nM
[6]
  Ki: 1.43 nM

## C[C@H](O)c1ccccc1S(=O)(=O)c1ccc(/C=C/c2ccc(F)cc2)cc1
[20]
  bioavailability: 44%
Canis familiaris [21]
  Activity: Non-toxic
[22]
  Activity: 8%
[11]
  remaining at 0.25 h: 44%
[12]
  remaining at 0.25 h: 34%
[23]
  bioavailability: 45%
[13]
  half-life: 3.15 h
[2]
  turnover at 0.25 h: 45%
[14]
  clearance: 95 mL/min/kg
[15]
  clearance: 32 mL/min/kg
Rattus norvegicus [24]
  Activity: Active
[16]
  clearance: 8 mL/min/kg
[25]
  Stability: Stable
Canis familiaris [26]
  Activity: Non-toxic
[3]
  Ki: 47 nM
Mus musculus
  Activity: Toxic
[5]
  Ki: 8250 nM
[27]
  INH: 6 µM
[6]
  Ki: 0.22 nM
[28]
  IC50: 4800 nM
Rattus norvegicus [29]
  Activity: 83%
[30]
  Vd: 19 L/kg
[17]
  remaining at 0.25 h: 50%
[18]
  half-life: 3.8 h
Rattus norvegicus [31]
  Activity: Non-toxic
Rattus norvegicus [32]
  Activity: Active
Rattus norvegicus [33]
  Activity: 80%
[34]
  IC50: > 30000 nM
[35]
  concentration at 2 h: 60 nM
Rattus norvegicus [36]
  Activity: Non-toxic
[19]
  half-life: 2.13 h
Rattus norvegicus [37]
  Activity: Active
Rhesus monkey
  concentration: 170 nM
[38]
  Stability: Stable
[39]
  bioavailability: 10%

## O=C(c1ccccc1F)N1CCC(CCc2ccc(F)cc2F)CC1
Rattus norvegicus [1]
  Activity: 40%
[2]
  turnover at 0.25 h: 99%
[3]
  Ki: 100 nM
[5]
  Ki: > 9000 nM

## O=S(=O)(c1ccccc1)c1ccc(/C=C/c2ccc(F)cc2F)cc1
[40]
  AUC: 6.39 µM·h
Rattus norvegicus [1]
  Activity: 40%
[41]
  AUC: 0.79 µM·h
[2]
  turnover at 0.25 h: 33%
[3]
  Ki: 65 nM
[5]
  Ki: 4340 nM
[42]
  AUC: 0.38 µM·h
[6]
  Ki: 1.32 nM
[43]
  AUC: 1.96 µM·h
[44]
  AUC: 0.46 µM·h
[45]
  AUC: 0.09 µM·h
